# Source: ChEMBL document CHEMBL1143137, “Synthesis, in vitro and in vivo activity of thiamine antagonist transketolase inhibitors” (Bioorg Med Chem Lett, 2008)
# Calls of active or inactive are those of the source. No cut-off for these calls is given here.
# Target: T1, Transketolase (Homo sapiens, UniProt P29401)
# T1 sequence (P29401 whole entry): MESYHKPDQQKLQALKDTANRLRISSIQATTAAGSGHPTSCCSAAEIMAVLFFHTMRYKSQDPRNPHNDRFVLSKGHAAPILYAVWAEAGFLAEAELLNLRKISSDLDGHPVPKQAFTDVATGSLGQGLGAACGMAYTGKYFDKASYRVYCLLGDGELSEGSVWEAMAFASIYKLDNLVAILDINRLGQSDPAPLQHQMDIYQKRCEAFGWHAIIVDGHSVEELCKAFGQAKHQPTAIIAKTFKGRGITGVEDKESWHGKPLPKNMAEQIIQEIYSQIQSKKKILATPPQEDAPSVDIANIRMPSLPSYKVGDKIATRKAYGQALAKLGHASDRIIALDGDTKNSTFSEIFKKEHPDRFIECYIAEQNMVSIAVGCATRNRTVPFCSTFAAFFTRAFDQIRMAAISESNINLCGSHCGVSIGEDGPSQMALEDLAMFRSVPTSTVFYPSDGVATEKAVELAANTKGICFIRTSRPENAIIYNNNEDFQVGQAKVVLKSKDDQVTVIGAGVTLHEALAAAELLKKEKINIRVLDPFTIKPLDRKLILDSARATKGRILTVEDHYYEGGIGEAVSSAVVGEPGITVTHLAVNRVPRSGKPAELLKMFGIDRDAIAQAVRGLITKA
# Test: Binding affinity to apo-transketolase
# Conditions: not given
row,SMILES,Kd [nM]
1,Cc1ccc(C[n+]2csc(CCOP(=O)(O)OP(=O)(O)O)c2C)c(N)n1,22

# Target: T1, Transketolase
# Test: Inhibition of transketolase by TPPK/apo-TK coupled assay
# Conditions: not given
row,SMILES,Kd [nM]
1,Cc1ccc(C[n+]2csc([C@@H](O)CO)c2C)c(N)n1,27
2,Cc1c(CCO)sc[n+]1Cc1ccc(C(=O)c2ccccc2C(=O)O)nc1,140
3,Cc1ccc(C[n+]2csc(CCO)c2CO)c(N)n1,25
4,Cc1c(CCO)sc[n+]1Cc1ccc(Cl)nc1N,46
5,Cc1ccc(C[n+]2cc(CCO)sc2C)c(N)n1,36
6,Cc1c(CCO)sc[n+]1Cc1c(C(F)(F)F)cc(C(F)(F)F)nc1N,1460
7,Cc1c(CCO)sc[n+]1Cc1ccc(C#N)nc1N,57
8,CCc1sc(CCO)c(C)[n+]1Cc1ccc(C)nc1N,75
9,Cc1ccc(C[n+]2csc(CCO)c2C)c(N)n1,33
10,Cc1c(CCO)sc[n+]1Cc1cnccc1N,64
11,Cc1ccc(C[n+]2c(C)sc(CCO)c2C)c(N)n1,25
12,Cc1ccc(C[n+]2csc([C@H](O)CO)c2C)c(N)n1,28
13,Cc1c(CCO)sc[n+]1Cc1ccc(C(F)(F)F)nc1N,104
14,Cc1ccc(C[n+]2c(C(C)O)sc(CCO)c2C)c(N)n1 (configuration not stated),120
15,Cc1c(CCO)sc[n+]1Cc1cc(I)cnc1N,109
16,CCc1c(CCO)sc[n+]1Cc1ccc(C)nc1N,40
17,Cc1ccc(C[n+]2csc(CCO)c2)c(N)n1,29
18,Cc1c(CCO)sc[n+]1Cc1cccnc1N,36
19,CCc1ccc(C[n+]2csc(CCO)c2C)c(N)n1,10
20,Cc1cc(C)c(C[n+]2csc(CCO)c2C)c(N)n1,34
21,Cc1ccc(C[n+]2csc(C(O)CO)c2C)c(N)n1 (configuration not stated),53
22,Cc1c(CCO)sc[n+]1Cc1ccc(C(F)(F)F)nc1,310
23,Cc1c(CCO)sc[n+]1Cc1ccc(N)nc1,7
24,Cc1cncc(C[n+]2csc(CCO)c2C)c1,220
25,CC(=O)Nc1ccc(C[n+]2csc(CCO)c2C)c(N)n1,23

# Target: T1, Transketolase
# Test: Inhibition of human transketolase in HCT116 cells
# Format: cell-based, HCT-116
# Conditions: not given
row,SMILES,EC50 [nM]
1,Cc1ccc(C[n+]2csc([C@@H](O)CO)c2C)c(N)n1,2000
2,Cc1c(CCO)sc[n+]1Cc1ccc(C(=O)c2ccccc2C(=O)O)nc1,3100
3,Cc1ccc(C[n+]2csc(CCO)c2CO)c(N)n1,570
4,COC(=O)CCc1sc[n+](Cc2ccc(C)nc2N)c1C,2300
5,Cc1ccc(C[n+]2c(Cc3cccnc3)sc(CCO)c2C)c(N)n1,840
6,Cc1ccc(C[n+]2cc(CCO)sc2C)c(N)n1,490
7,CC(=O)OCCc1sc[n+](Cc2ccc(C)nc2N)c1C,4.7
8,Cc1ccc(C[n+]2csc(CCC#N)c2C)c(N)n1,2200
9,Cc1c(CCO)sc[n+]1Cc1ccc(C#N)nc1N,360
10,CCc1sc(CCO)c(C)[n+]1Cc1ccc(C)nc1N,21
11,Cc1ccc(C[n+]2csc(CCO)c2C)c(N)n1,26
12,Cc1ccc(C[n+]2csc(CCCO)c2C)c(N)n1,1300
13,Cc1c(CCO)sc[n+]1Cc1cnccc1N,24000
14,Cc1ccc(C[n+]2c(-c3ccc4c(c3)OCO4)sc(CCO)c2C)c(N)n1,25000
15,Cc1ccc(C[n+]2c(C)sc(CCO)c2C)c(N)n1,56
16,Cc1ccc(C[n+]2csc([C@H](O)CO)c2C)c(N)n1,50
17,Cc1c(CCO)sc[n+]1Cc1ccc(C(F)(F)F)nc1N,160
18,Cc1ccc(C[n+]2c(C(C)O)sc(CCO)c2C)c(N)n1 (configuration not stated),30
19,Cc1c(CCO)sc[n+]1Cc1cc(I)cnc1N,1000
20,CCc1c(CCO)sc[n+]1Cc1ccc(C)nc1N,950
21,CCc1ccc(C[n+]2csc(CCO)c2C)c(N)n1,8.7
22,Cc1cc(C)c(C[n+]2csc(CCO)c2C)c(N)n1,8.3
23,Cc1ccc(C[n+]2csc(C(O)CO)c2C)c(N)n1 (configuration not stated),300
24,Cc1c(CCO)sc[n+]1Cc1ccc(C(F)(F)F)nc1,470
25,Cc1c(CCO)sc[n+]1Cc1ccc(N)nc1,1600
26,Cc1cncc(C[n+]2csc(CCO)c2C)c1,38000
27,CC(=O)Nc1ccc(C[n+]2csc(CCO)c2C)c(N)n1,800

# System: Mus musculus
# Test: Inhibition of transketolase activity in human HCT116 cells xenografted mouse at 100 mg/kg, iv bid for 2 weeks
# Format: functional, organism-based
# Set-up: dose 100 mg/kg
# Conditions: HCT-116
row,SMILES,Activity
1,Cc1ccc(C[n+]2csc(CCO)c2C)c(N)n1,Active

# System: Mus musculus
# Test: Inhibition of alphaKGDH activity in human HCT116 cells xenografted mouse at 100 mg/kg, iv bid for 2 weeks
# Format: functional, organism-based
# Set-up: dose 100 mg/kg
# Conditions: HCT-116
row,SMILES,Activity
1,Cc1ccc(C[n+]2csc(CCO)c2C)c(N)n1,Active

# System: Mus musculus
# Test: Inhibition of G6PD activity in human HCT116 cells xenografted mouse at 100 mg/kg, iv bid for 2 weeks
# Format: functional, organism-based
# Set-up: dose 100 mg/kg
# Conditions: HCT-116
row,SMILES,Activity
1,Cc1ccc(C[n+]2csc(CCO)c2C)c(N)n1,inactive

# System: HCT-116
# Test: Antitumor activity against human HCT116 cells xenografted mouse assessed as reduction in tumor size at 100 mg/kg, iv bid for 2 weeks
# Format: functional, organism-based
# Set-up: dose 100 mg/kg
# Conditions: not given
row,SMILES,Activity
1,Cc1ccc(C[n+]2csc(CCO)c2C)c(N)n1,inactive
